Like-named read-outs stand apart in the source and are kept apart here.
Molecular target: T1, alpha2A receptor (Homo sapiens, UniProt P08913)
T1 sequence (P08913 1-465): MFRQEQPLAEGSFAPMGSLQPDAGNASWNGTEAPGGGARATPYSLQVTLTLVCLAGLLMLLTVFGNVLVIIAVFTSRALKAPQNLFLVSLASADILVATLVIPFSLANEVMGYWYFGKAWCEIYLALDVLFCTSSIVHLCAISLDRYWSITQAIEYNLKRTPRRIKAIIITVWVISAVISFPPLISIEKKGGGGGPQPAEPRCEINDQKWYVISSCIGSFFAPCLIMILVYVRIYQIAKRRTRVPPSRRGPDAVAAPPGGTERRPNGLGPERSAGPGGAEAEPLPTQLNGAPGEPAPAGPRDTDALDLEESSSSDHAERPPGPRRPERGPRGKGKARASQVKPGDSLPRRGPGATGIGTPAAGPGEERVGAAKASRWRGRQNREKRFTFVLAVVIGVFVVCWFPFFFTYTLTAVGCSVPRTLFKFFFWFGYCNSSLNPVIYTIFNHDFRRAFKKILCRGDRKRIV
Assay: Alpha2A agonistic activity in vitro
Format: cell-based

[1] = Alpha2A Agonism pEC50, in vitro
[2] = in vitro, read-out: Alpha2A Agonism pEC50 (converted)

Compound	EC50 [1] [nM]	Alpha2A Intrinsic Activity (in vitro)	EC50 [2] [nM]
CC1COC(C2=NCCN2)c2cccc(Br)c21 (centres unmarked) [Example 20, 2-(5-Bromo-4-methylisochroman-1-yl)-4,5-dihydro-1H-imidazole]	63.1	0.87	
C[C@@H]1Cc2c(OC(F)(F)F)cccc2C(C2=NCCN2)O1 (stereo partly drawn) [Example 49, 2-((3R)-3-methyl-5-(trifluoromethoxy)isochroman-1-yl)-4,5-dihydro-1H-imidazole]		0.35	126
Cc1cccc2c1CC(C)SC2C1=NCCN1 (centres unmarked) [Example 62, 2-(3,5-Dimethylisothiochroman-1-yl)-4,5-dihydro-1H-imidazole]		0.77	
CC1(C2=NCCN2)SCCc2c(Br)cccc21 (centres unmarked) [Example 66, 2-(5-Bromo-1-methylisothiochroman-1-yl)-4,5-dihydro-1H-imidazole]		0.43	1580
C[C@@H]1Cc2c(Cl)cccc2C(C2=NCCN2)O1 (stereo partly drawn) [Example 33, 2-((3R)-5-chloro-3-methylisochroman-1-yl)-4,5-dihydro-1H-imidazole]	1.58	0.93	
CC1(C2=NCCN2)OCc2cccc3cccc1c23 (single isomer, unassigned) [Example 103, 2-(1-methyl-1,3-dihydrobenzo[de]isochromen-1-yl)-4,5-dihydro-1H-imidazole]	6.31	0.74	
C[C@@H]1Cc2c(F)cccc2C(C2=NCCN2)O1 (stereo partly drawn) [Example 50, 2-((3R)-5-fluoro-3-methylisochroman-1-yl)-4,5-dihydro-1H-imidazole]	25.1	0.90	
C[C@H]1Cc2c(Br)cccc2C(C2=NCCN2)O1 (stereo partly drawn) [Example 35, 2-((3S)-5-bromo-3-methylisochroman-1-yl)-4,5-dihydro-1H-imidazole]	15.8	0.80	
CC1Cc2c(Cl)cccc2C(C2=NCCN2)O1 (centres unmarked) [Example 26, 2-(5-Chloro-3-methylisochroman-1-yl)-4,5-dihydro-1H-imidazole]	3.98	0.82	
Cc1cccc2c1CC(C)OC2(C)C1=NCCN1 (centres unmarked) [Example 30, 2-(1,3,5-Trimethylisochroman-1-yl)-4,5-dihydro-1H-imidazole]		0.60	794
Cc1cccc2c1CCOC2(C)C1=NCCN1 (single isomer, unassigned) [Example 22, 2-(1,5-Dimethylisochroman-1-yl)-4,5-dihydro-1H-imidazole]		0.33	1000
CSc1cccc2c1CCOC2C1=NCCN1 (centres unmarked) [Example 87, 2-(5-(Methylthio)isochroman-1-yl)-4,5-dihydro-1H-imidazole]	63.1	0.75	
CC1OC(C2=NCCN2)c2cccc3cccc1c23 (centres unmarked) [Example 104, 2-(3-Methyl-1,3-dihydrobenzo[de]isochromen-1-yl)-4,5-dihydro-1H-imidazole]	3.16	0.95	
FC(F)(F)CC1Cc2c(Br)cccc2C(C2=NCCN2)O1 (single isomer, unassigned) [Example 83]		0.41	126
COc1cccc2c1CC(C)OC2C1=NCCN1 (centres unmarked) [Example 38, 2-(5-Methoxy-3-methylisochroman-1-yl)-4,5-dihydro-1H-imidazole]	12.6	0.92	
CCC1OC(C2=NCCN2)c2cccc3cccc1c23 (centres unmarked) [Example 105, 2-(3-Ethyl-1,3-dihydrobenzo[de]isochromen-1-yl)-4,5-dihydro-1H-imidazole]	39.8	0.66	
CCC1Cc2c(Br)cc(Br)cc2C(C2=NCCN2)O1 (centres unmarked) [Example 67, 2-(5,7-Dibromo-3-ethylisochroman-1-yl)-4,5-dihydro-1H-imidazole]		0.42	1000
CCc1cccc2c1CCOC2C1=NCCN1 (single isomer, unassigned) [Example 80]		0.58	251

— patent US9249127B2 (Orion Corporation, priority 2012, dated 2016)
